Results as given in patent US8053467B2, “Flavor improving agent, and food and drink containing the same” (Takasago International Corporation, priority 2006, dated 2011).

Experiments:
[1] = Sensory evaluation of the flavor improving agents for the sugar-free sweetener; type: in vivo
Procedure: A sugar-free sweetener having the formulation shown in Table 2 was obtained, and 12 g of the sugar-free sweetener was dissolved in 1 kg of ion exchanged water to obtain a 1.2 wt. % aqueous solution. 60 mg of the flavor improving agent in Example 2 was added to 300 g of the aqueous solution to obtain a sugar-free sweetener solution sample containing 0.02% by weight of the flavor improving agent. The content of 5-hydroxymethyl-2-furaldehyde bis(5-formylfurfuryl)acetal in the sugar-free sweetener was 0.00014% by weight.
This sample was evaluated with regard to the items shown in Table 3 by a sensory evaluation method of comparing a sample with a control product. The evaluation was performed by a panel of 5 trained experts. The sample was evaluated with the points in the range of −3 to +3, with setting the control product at 0 point. The control product was not provided with a flavor improving agent (provided with ethanol).
The numerals in the table are the averages of the 5 experts.

[2] = Bitterness threshold by sensory evaluation test (panel of 9 experts); type: in vivo; settings: for bitterness at the maximum concentration: at 0.1% by weight, the maximum concentration (1000 times the acetal threshold)
Procedure: 100 mg of 5-hydroxymethyl-2-furaldehyde bis(5-formylfurfuryl)acetal obtained in Example 1 was dissolved in 1 mL of ethanol, and 100 mL of water was added to produce 0.1% by weight of a 1 wt. % ethanol solution. This solution was diluted 10-fold with water repeatedly to prepare samples for evaluation. In consideration of the taste of ethanol itself, a 1 wt. % ethanol solution was prepared and diluted 10-fold with water repeatedly to prepare blanks respectively corresponding to the samples for evaluation. The evaluation was performed by a panel of 9 experts. The sensory evaluation test was performed from a sample/blank having a lower concentration. In the order of blanks to samples, the experts held 200 mg of each sample/blank in the mouth and evaluated the difference in taste.

[3] = literature report; cited from earlier work
[4] = Sensory evaluation of the flavor improving agents for the coffee drink; type: in vivo; settings: summary of Table 10
Procedure: 60 mg of the flavor improving agent in Example 2 was added to 300 g of commercially available canned coffee to obtain a coffee drink containing 0.02% by weight of the flavor improving agent. The content of 5-hydroxymethyl-2-furaldehyde bis(5-formylfurfuryl)acetal in this coffee drink was 0.00014% by weight.
This coffee drink was evaluated with regard to the items shown in Table 10 by a sensory evaluation method of comparing a sample with a control product. The evaluation was performed by a panel of 5 trained experts. Sensory evaluation of the coffee drink was carried out with the points in the range of −3 to +3, with setting the control product at 0 point, in the same manner as in Example 9. The control product was not provided with a flavor improving agent (provided with ethanol).

[5] = same type of test as Example 9, agents prepared as in Example 2 with formulas (2) and (3), also with 100 times the amount
[6] = sugar-free sweetener solution, summary of Table 3

O=Cc1ccc(COCc2ccc(C=O)o2)o1 [formula (3)]
flavor improving effect in words [1, 5]: None of the agents exhibited any flavor improving effect and provided various unpleasant tastes including astringency
bitterness at the maximum concentration [2]: did not provide bitterness
reported taste [3]: unpleasant taste

αG hesperidin
flavor improving effect in words [1, 6]: poor effect of reducing astringency or improving the sense of volume

O=Cc1ccc(COC(OCc2ccc(C=O)o2)c2ccc(CO)o2)o1 [acetal compound of the present invention, 5-hydroxymethyl-2-furaldehyde bis(5-formylfurfuryl)acetal]
bitterness threshold ([2]; 1 ppm expressed in %): 0.0001%
bitterness threshold ([2]; 1 ppm expressed in % by weight): 0.0001 % by weight
bitterness threshold ([2]; 10-fold dilutions in water vs ethanol blanks, panel of 9 experts): 1 ppm
bitterness threshold converted to the molar concentration ([2]; converted from 1 ppm): about 10^−3 mM

diheterolevulosan II
flavor effect in words [4]: medicine-like unnatural bitterness and are poor in attractiveness

O.O.O.O.O.O.O.O.O.O.O.O.O=S(=O)([O-])[O-].O=S(=O)([O-])[O-].[Al+3].[K+] [potassium alum]
flavor improving effect in words [1, 6]: poor effect of reducing astringency or improving the sense of volume

C[C@@H]1O[C@@H](O[C@H]2[C@H](Oc3cc(O)c4c(c3)O[C@H](c3ccc(O)cc3)CC4=O)O[C@H](CO)[C@@H](O)[C@@H]2O)[C@H](O)[C@H](O)[C@H]1O [naringin]
flavor effect in words [4]: medicine-like unnatural bitterness and are poor in attractiveness

O=Cc1ccc(CO)o1 [formula (2), 5-hydroxymethyl-2-furaldehyde]
flavor improving effect in words [1, 5]: None of the agents exhibited any flavor improving effect and provided various unpleasant tastes including astringency
bitterness at the maximum concentration [2]: did not provide bitterness
reported taste [3]: unpleasant taste
